Test results: PubChem BioAssay (NCI)
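A five-concentration, 48-hour dose response in 96-well plates underlies each endpoint, interpolated linearly between surrounding concentrations. Here, GI50 denotes the concentration required for 50% inhibition of growth. TGI: total growth inhibition.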

How the values were obtained:
Assay in all cases: NCI tumour cell line growth inhibition, 48 h
[1] = test system: SK-MEL-28 melanoma
[2] = test system: HCT-15 colon
[3] = test system: SNB-19 CNS
[4] = test system: U251 CNS
[5] = test system: OVCAR-4 ovarian
[6] = test system: MCF7 breast
[7] = test system: LOX IMVI melanoma
[8] = test system: CAKI-1 renal
[9] = test system: OVCAR-3 ovarian
[10] = test system: MALME-3M melanoma

SMILES | TGI [1] [µM] | TGI [2] [µM] | TGI [3] [µM] | TGI [4] [µM] | TGI [5] [µM] | TGI [6] [µM] | TGI [7] [µM] | TGI [8] [µM] | TGI [9] [µM] | TGI [10] [µM] | GI50 [1] [µM] | GI50 [7] [µM]
C=CCCC(On1c(-c2ccc(Cl)cc2)csc1=S)c1ccccc1 (configuration not stated) | > 100 | > 100 | > 100 | > 100 | > 100 | > 100 | > 100 | > 100 | > 100 | 98.4 |  | 
CCCCC1(N=[N+]=[N-])C(=O)C2C=CC=C3c4ccccc4N(C1=O)C32 (configuration not stated) | > 100 | > 31.6 | > 31.6 | > 31.6 | > 31.6 | 28.1 | > 31.6 | > 31.6 | > 31.6 | > 31.6 |  | 
NC(=O)c1ncn2c(=O)n(CCl)nnc12 | > 100 | > 100 | > 100 | > 100 | > 100 | > 100 | > 100 | > 100 | > 100 | > 100 |  | 
N#CCSc1c(-c2ccccc2)c(=O)n(-c2ccccc2)c(=S)n1-c1ccccc1 | > 100 | > 100 | > 100 | > 100 | > 100 | > 100 | > 100 | > 100 | > 100 | > 100 |  | 
COc1cc(/C=c2/c3ccccc3n3c2cc(-c2ccccc2)[n+]3C)cc(OC)c1OC | 19.1 | 18.5 | 17.9 | 13.6 | 8.61 | 20.6 | 12.6 | 11.8 | 6.82 | 5.67 |  | 
Cc1oncc1NC1=CC(=O)C(=O)c2ccccc21 | 29.2 | 12.2 | 46.8 | 17.3 | 12.9 | 9.63 | 10.5 | 22.6 | 4.97 | 8.69 |  | 
CC(C)=CCCC1(Sc2ccccc2)C(=O)OCC1C=C(C)C (configuration not stated) | > 100 | > 100 | > 100 | > 100 | > 100 | > 100 | 30.1 | > 100 | 42.8 | 40.7 |  | 
CCNc1cc2c3c(c1)CCCN3CCC2 | 87.5 | 40.5 | 33 | 24.7 | 32.3 | 62.9 | 13.5 | > 100 | 19.1 | 44.6 |  | 
CCCCCCCCCCCCCCCCCCOc1ccc(/C=C/C2=[N+](CCCl)CCO2)cc1 | > 100 | > 100 | > 100 | > 100 | > 100 | > 100 | > 100 | > 100 | > 100 | > 100 |  | 
Clc1ccc2nc(CC3CCCC3)[nH]c2c1 | 63.9 | 22.9 | 64 | 36.5 | 45.8 | 22 | 29.9 | 27.6 | 22.7 | 45.1 |  | 
COP(=O)(OC)c1ccc(NCc2cc(O)ccc2O)cc1 | > 70.2 | 50.2 | > 100 | > 72.1 | > 59 | 99.3 | > 75.4 | 34.6 | 16.5 | 39.1 |  | 
COc1nc2ccc(CNc3ccc(C(=O)O)cc3)cc2nc1OC | > 10 | > 10 | > 10 | > 10 | > 10 | > 10 | > 10 | > 10 | > 10 | > 10 |  | 
COc1ccc2oc(=Nc3ccc(F)cc3)c(C(N)=O)cc2c1 | > 100 | > 100 | > 100 | > 100 | > 100 | > 100 | > 100 | > 100 | > 100 | > 100 |  | 
Clc1cc(OCC23CC4CC(CC(C4)C2)C3)nc(OCC23CC4CC(CC(C4)C2)C3)n1 | > 100 | > 100 | > 100 | > 100 | > 100 | > 100 | > 100 | > 100 | > 100 | > 100 |  | 
N/C(=N\N=C\c1cc2c(cc1Cl)OCO2)NO | > 100 | > 100 | > 45.4 | > 100 | > 100 | > 100 | > 100 | > 100 | > 24.6 | > 100 |  | 
CN(C)CCNC(=O)c1cccc2[nH]c(-c3ccncc3)nc12 | 3.93 | 10.4 | > 63.2 | 9.82 | > 100 | > 30.8 | 1.81 | 5.95 | > 46.9 | 3.75 |  | 
COc1ccc(-c2nnc(CCCCCCCCc3nnc(-c4ccc(OC)cc4)n3N)n2N)cc1 | > 100 | > 100 | > 100 | > 100 | > 100 | > 100 | > 100 | > 100 | > 100 | > 100 |  | 
COC(=O)C(Cc1ccccc1)NC(=O)c1ccc(CNC(=S)NCc2cccc(CNC(=S)NCc3ccccc3)c2)cc1 (configuration not stated) | > 62.5 | > 62.5 | > 62.5 | > 62.5 | > 62.5 | > 62.5 | > 62.5 | > 62.5 | > 62.5 | > 62.5 |  | 

SMILES | TGI [1] [µM] | TGI [2] [µM] | TGI [3] [µM] | TGI [4] [µM] | TGI [5] [µM] | TGI [6] [µM] | TGI [7] [µM] | TGI [8] [µM] | TGI [9] [µM] | TGI [10] [µM] | GI50 [1] [µM] | GI50 [7] [µM]
CNc1ncnc2c1nnn2C | > 100 | > 100 | > 100 | > 100 | > 100 | > 100 | > 100 | > 100 | > 100 | > 100 |  | 
CCCCCC(O)(CCCCC)CCCCCCCCC1=C(O)c2ccccc2C(=O)C1=O | > 46.2 | 15.6 | 24.9 | 14.5 | > 48.8 | 23.6 | 18 | > 56.1 | 29.4 | 28.6 |  | 
CSC1(SC)N2Cc3ccccc3N=C2C1(c1ccccc1)c1ccccc1 | > 59.5 | > 100 | > 100 | > 58.9 | > 100 | > 87.9 | 44.4 | > 100 | 28.3 | 27.6 |  | 
COc1cc(C2c3cc4c(cc3OC3(OC)COC(=O)C23)OCO4)cc(OC)c1OC (configuration not stated) | > 100 | 20.1 | > 26.6 | > 66.3 | > 100 | > 56.8 | 23.4 | > 90.2 | 2.45 | > 100 |  | 
NNC(=O)CCC(NS(=O)(=O)c1ccc(Cl)cc1)C(=O)NN (configuration not stated) | > 100 | > 100 | > 100 | > 100 | > 100 | > 100 | > 100 | > 100 | > 100 | > 100 |  | 
S=c1nc2sc3c(c2c(Nc2ccc(Br)cc2)[nH]1)CCN(N1CCc2c(sc4nc(=S)[nH]c(Nc5ccc(Br)cc5)c24)C1)C3 | 31 | > 50 | > 50 | 19 | > 50 | > 50 | 24.9 | > 50 | > 50 | > 50 |  | 
C[C@H](N)C(=O)N[C@@H]1[C@H]2C(=C(O)C[C@@H](O)[C@@H]2O)C(=O)O[C@@H]1C | > 100 | > 100 | > 100 | > 100 | > 100 | > 100 | > 100 | > 100 | > 100 | > 100 |  | 
O=[N+]([O-])c1ccc2nc(/C=C(\O)c3ccccc3)c(/C=C(\O)c3ccccc3)nc2c1 | > 100 | > 100 | > 100 | 22.9 | 32.5 | > 100 | 21.3 | > 79 | 31.3 | > 100 | 8.3 | 7.18
COc1cccc2c1-c1c(OC)cccc1SS2 | 79.4 | 33.3 | 76.7 | 46.8 | 90.5 | > 100 | 23.5 | > 100 | 48.7 | 52 |  | 
CN(C)CCCNc1cnc2cc3ccccc3cc2n1 | 81.5 | 56 | > 100 | > 100 | 91.4 | 44.8 | 35.7 | 74.4 | > 100 | 44.5 |  | 
CCOC(=O)C1C[C@H]2CO[C@H](c3ccccc3)N2C1=O (some centres not stated) | > 100 | > 100 | > 100 | > 100 | > 100 | > 100 | > 100 | > 100 | > 100 | > 100 |  | 
COc1ccc(N2C(N)=C(C#N)C(C#N)(C#N)C2c2cccc([N+](=O)[O-])c2)cc1 (configuration not stated) | 23.6 | 30.3 | 32.5 | 31.7 | 32 | 40.2 | 27.6 | 23.4 | 30.1 | 16 |  | 
N#CCOc1cccc(C2(N3CC=CCC3)CCCCC2)c1 | > 100 | > 100 | > 100 | > 100 | > 100 | > 100 | > 100 | > 100 | > 100 | > 100 |  | 
COc1cc(O)c2c(=O)c(OC)c(-c3ccc4c(c3)OCO4)oc2c1OC | > 50 | > 50 | > 50 | > 50 | > 50 | > 50 | > 50 | > 50 | > 50 | > 50 |  | 
CCCCNC(=S)c1ccc(OC(=O)Nc2ccc(Cl)cc2)cc1 | > 100 | > 100 | > 100 | > 100 | > 100 | > 100 | > 100 | > 100 | > 100 | > 100 |  | 
CCOC(=O)C1=CC(C)(C(=O)OCC)Nc2c(nc(SC)n(C)c2=O)N1 (configuration not stated) | > 10 | > 10 | > 10 | > 10 | > 10 | > 10 | > 10 | > 10 | > 10 | > 10 |  | 
COC12OC3CC4(C)C(=CC3OC(OC(C)C1O)C2O)CCC1C4CCC2(C)C(c3ccc(=O)oc3)CCC12O (configuration not stated) | 0.0434 | 0.00553 | 0.00455 | 0.00277 | 0.00199 | 0.00432 | 0.00281 | 0.00849 | 0.00639 | 0.00391 |  | 
